Laboratory results from PMC10144242, “Design, Synthesis, In Vitro, and In Silico Insights of 5-(Substituted benzylidene)-2-phenylthiazol-4(5H)-one Derivatives: A Novel Class of Anti-Melanogenic Compounds” (Molecules, 2023).

Legend:
mushroom tyrosinase [1] = target: T1, mushroom tyrosinase (Agaricus bisporus, UniProt C7FF04); assay: Inhibition assay against mushroom tyrosinase (L-tyrosine substrate); assay type: biochemical
Target sequence in this assay (C7FF04 1-392): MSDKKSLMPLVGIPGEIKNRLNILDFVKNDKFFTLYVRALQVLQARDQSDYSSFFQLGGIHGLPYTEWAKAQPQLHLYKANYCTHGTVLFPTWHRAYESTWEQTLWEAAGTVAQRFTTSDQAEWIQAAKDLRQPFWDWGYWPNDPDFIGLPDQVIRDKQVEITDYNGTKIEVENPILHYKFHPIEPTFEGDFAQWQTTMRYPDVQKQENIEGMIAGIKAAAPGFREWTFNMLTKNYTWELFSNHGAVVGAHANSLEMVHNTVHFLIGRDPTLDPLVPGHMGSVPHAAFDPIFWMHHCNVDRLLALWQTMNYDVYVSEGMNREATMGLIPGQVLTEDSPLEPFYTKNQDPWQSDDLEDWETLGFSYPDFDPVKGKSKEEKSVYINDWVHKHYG
Procedure: Therefore, the inhibitory effect of 14 synthetic (Z)-BPT derivatives on mushroom tyrosinase was investigated according to a previously described procedure [39].
Tyrosinase inhibition experiments were performed independently in triplicates. […] The IC50 values are presented as the mean ± standard error of the mean (SEM).
Minor modifications were made to the previous description of the inhibitory activity of mushroom tyrosinase [39]. […] After 30 min incubation at 37 °C, the amount of dopachrome produced in the assay mixture was measured at 492 nm using a microplate reader (VersaMax^TM, Molecular Devices, Sunnyvale, CA, USA) for determining the remaining tyrosinase activity. To obtain the IC50 values for each test sample, dose-dependent inhibition studies were performed in triplicates using three to five different concentrations of each test sample.

[2] = DPPH radical scavenging assay; conditions: 1 mM, 30 min in the dark
Procedure: The 2,2-diphenyl-1-picrylhydrazyl (DPPH) radical scavenging capacity of the (Z)-BPT derivatives (1 mM) was investigated using L-ascorbic acid (1 mM, vitamin C) as a positive control. […] L-Ascorbic acid scavenged 97.1% of the DPPH radical, whereas (Z)-BPT derivative 1 with a 4-hydroxyl substituent on the β-phenyl ring scavenged 46.5% of the DPPH radical.
The antioxidant properties of (Z)-BPT derivatives 1–14 against DPPH (2,2-diphenyl-1-picrylhydrazyl) radicals were examined using a DPPH radical scavenging assay, as previously described with minor modifications. DPPH solution (180 µL, 0.2 mM) in methanol was mixed with a (Z)-BPT derivative solution (1–14, 20 µL, 10 mM) in dimethyl sulfoxide in each well of a 96-well plate, and the mixture was kept for 30 min in the dark at room temperature. The absorbance at 517 nm was measured using a VersaMax ™ microplate reader (Molecular Devices, Sunnyvale, CA, USA). The capacity of the derivatives to scavenge DPPH radicals was compared with that of L-ascorbic acid, which was used as the positive control. Each experiment was run independently in triplicates.
Figure 10 The radical scavenging effect of (Z)-BPT derivatives on DPPH. The DPPH radical scavenging activities of test samples (1 mM) were assayed after being left in the dark for 30 min. Distilled water and dimethyl sulfoxide (DMSO) were utilized as the solvents for the positive control L-ascorbic acid and the (Z)-BPT derivatives, respectively. Asterisks (***) represent a significant difference between L-ascorbic acid and the (Z)-BPT derivatives, and results are expressed as the mean ± standard error of three different experiments. *** p < 0.001.

B16F10 cells = assay: Cell viability / cytotoxicity, EZ-Cytox assay; assay type: cell-based, murine
Procedure: Before investigating their inhibitory effects on B16F10 cells, the viability of (Z)-BPT derivatives 1–3 was examined in B16F10 cells.
To determine the cell viability, six different concentrations (0, 1, 2, 5, 10, and 20 µM) of (Z)-BPT derivatives 1–3 were used, and the results were examined at two time points (48 and 72 h). […] Based on the cell viability results, the concentrations for cell-based assays related to the melanin production level and cellular tyrosinase activity were determined.
Cytotoxicity studies of (Z)-BPT derivatives 1–3 were performed on B16F10 melanoma cells using the previously established EZ-Cytox (EZ-3000, DoGenBio, Seoul, Republic of Korea) test, and cytotoxicity studies of (Z)-BPT derivatives 1–3 were conducted on B16F10 melanoma cells. Briefly, B16F10 cells were seeded in a 96-well plate at a density of 1 × 10^4 cells/well and cultivated at 37 °C for 24 h in a humid environment with 5% CO2. […] The cells were then incubated at 37 °C for 2 h after 10 µL of the EZ-Cytox solution had been added to each well. To determine the cell viability, the absorbance of each well was measured at 450 nm using a microplate reader (VersaMax^TM, Molecular Devices, Sunnyvale, CA, USA). Each assay was performed in triplicates.
Figure 6 Effects of (Z)-BPT derivatives 1–3 on cell viability in B16F10 cells. Cytotoxic effects were measured using an EZ-Cytox assay at six different concentrations (0, 1, 2, 5, 10, and 20 µM) of 1–3. (A) Derivative 1; (B) Derivative 2; (C) Derivative 3. *** p < 0.001 for non-treated cells vs. cells treated with 3.

mushroom tyrosinase [3] = target: T1, mushroom tyrosinase; assay: Kinetic studies on mushroom tyrosinase inhibition (Lineweaver–Burk and Dixon plots, L-DOPA substrate); assay type: biochemical; design: purchased Sigma-Aldrich
Procedure: As depicted in Figure 2, the mechanisms of tyrosinase inhibition were analyzed using Lineweaver–Burk plots. […] Each of the four straight lines produced at each inhibitor concentration converged to a single point on the y-axis. […] In contrast, in derivative 3, four straight lines generated at each inhibitor concentration intersected at a point in the second quadrant. According to the Lineweaver–Burk plot, as the inhibitor concentration increased, the Vmax value of 3 decreased, but the KM value increased.
To determine the Ki (inhibition constant) values of (Z)-BPT derivatives 1–3, Lineweaver–Burk plots for 1–3 were transformed into the corresponding Dixon plots (Figure 3). Each Dixon plot obtained from each Lineweaver–Burk plot produced four straight lines that intersected at one point in the second quadrant. The vertical lines from the merge point to the x-axis provide the Ki value of each (Z)-BPT derivative.
To determine the mode of action, Lineweaver–Burk plots of (Z)-BPT derivatives 1–3 were acquired. In brief, 10 µL of (Z)-BPT derivatives 1–3 (final concentrations:0, 3, 6, or 12 µM for 1; 0, 0.05, 0.1, or 0.2 µM for 2; 0, 2.5, 5, or 10 µM for 3) was added to a 96-well plate containing a substrate mixture (170 µL) consisting of an aqueous solution of L-dopa at final concentrations of 0.5, 1.0, 2.0, or 4.0 mM and 14.7 mM potassium phosphate buffer (pH 6.5), and a mushroom tyrosinase aqueous solution (20 µL, 20 units). Using a microplate reader (VersaMax^TM, Molecular Devices, Sunnyvale, CA, USA) to measure the increase in absorbance at a wavelength of 492 nm (ΔOD492/min), the initial rate of dopachrome synthesis in the reaction mixture was estimated. Using five different concentrations of L-dopa, Lineweaver–Burk plots (inverse of the response rate (1/V) vs. inverse of L-dopa concentration (1/(S)) were created. The convergence points of the four plot lines were used to define the mode of action of tyrosinase inhibition.
Figure 2 Lineweaver–Burk plots for the inhibition of mushroom tyrosinase activity by (Z)-BPT derivatives 1–3. […] Three independent experiments with five different concentrations (0.5, 1, 2, 4, and 8 mM) of an L-DOPA substrate were used to measure the augmented dopachrome optical density per minute at 492 nm. The data are shown as mean values of 1/V (an inverse of that optical density per minute). The (Z)-BPT derivatives were used at concentrations of 0 (filled circles), 3 (unfilled circles), 6 (filled triangles), and 12 µM (unfilled triangles) for 1; 0 (filled circles), 0.05 (unfilled circles), 0.1 (filled triangles), and 0.2 µM (unfilled triangles) for 2; and 0 (filled circles), 2.5 (unfilled circles), 5 (filled triangles), and 10 µM (unfilled triangles) for 3. Each experiment was run independently in triplicates.
Figure 3 Dixon plots for the inhibition of mushroom tyrosinase activity by (Z)-BPT derivatives 1–3. The Ki values of (Z)-BPT derivatives 1–3 were obtained from the absolute values of the x-coordinate where four straight lines converged at one point. Three independent experiments with four different concentrations of (Z)-BPT derivatives were conducted to measure the augmented dopachrome optical density per minute at 492 nm. The data are shown as the mean values of 1/V (an inverse of that optical density per minute). The (Z)-BPT derivatives were used at concentrations of 0, 3, 6, and 12 µM for 1; 0, 0.05, 0.1, and 0.2 µM for 2; and 0, 2.5, 5, and 10 µM for 3. The experiments were performed at four different concentrations (0.5, 1, 2, and 4 mM) of L-DOPA. Each experiment was run independently in triplicates.
Target sequence in this assay (C7FF04 1-392 limits assumed): as the sequence (C7FF04 1-392) above

SMILES | DPPH radical scavenging activity [2] | other results
O=C1N=C(c2ccccc2)S/C1=C\c1ccccc1O [Compound 7, (Z)-5-(2-Hydroxybenzylidene)-2-phenylthiazol-4(5H)-one] |  | mushroom tyrosinase inhibitory activity (in words) (mushroom tyrosinase [1]): did not exhibit mushroom tyrosinase inhibitory activity
O=C1N=C(c2ccccc2)S/C1=C\c1ccc(O)c(Br)c1 [Compound 13, (Z)-5-(3-Bromo-4-hydroxybenzylidene)-2-phenylthiazol-4(5H)-one] | 14.8% | 
CCOc1cc(/C=C2\SC(c3ccccc3)=NC2=O)ccc1O [Compound 5, (Z)-5-(3-Ethoxy-4-hydroxybenzylidene)-2-phenylthiazol-4(5H)-one] | 58.0% | 
COc1cc(/C=C2\SC(c3ccccc3)=NC2=O)ccc1O [Compound 4, (Z)-5-(4-Hydroxy-3-methoxybenzylidene)-2-phenylthiazol-4(5H)-one] | 81.0% | 
O=C1N=C(c2ccccc2)S/C1=C\c1ccc(O)c(O)c1 [Compound 3, (Z)-5-(3,4-Dihydroxybenzylidene)-2-phenylthiazol-4(5H)-one] | 96.2% | concentrations showing cytotoxic effects (B16F10 cells; at 72 h (first statement of the sentence)): ≥ 5 µM; concentrations showing cytotoxic effects (B16F10 cells; at 72 h (second statement of the sentence)): ≥ 2 µM; Ki (mushroom tyrosinase [3]; Dixon plots, read-out: Ki (inhibition constant)): 4.8 µM; Inhibition type (mushroom tyrosinase [3]; Lineweaver–Burk plot): mixed-type inhibitor
O=C1O[C@H]([C@@H](O)CO)C(O)=C1O [L-Ascorbic acid, L-ascorbic acid, reference compound] | 97.1% | 
COc1ccc(/C=C2\SC(c3ccccc3)=NC2=O)cc1O [Compound 6, (Z)-5-(3-Hydroxy-4-methoxybenzylidene)-2-phenylthiazol-4(5H)-one] | 25.1% | 
COc1cc(/C=C2\SC(c3ccccc3)=NC2=O)cc(OC)c1O [Compound 12, (Z)-5-(4-Hydroxy-3,5-dimethoxybenzylidene)-2-phenylthiazol-4(5H)-one] | moderate to strong DPPH radical scavenging activity | 
O=C1N=C(c2ccccc2)S/C1=C\c1cc(Br)c(O)c(Br)c1 [Compound 14, (Z)-5-(3,5-Dibromo-4-hydroxybenzylidene)-2-phenylthiazol-4(5H)-one] | 57.3% | 
